# Assay results from US20120322824A1, “Cocaine Antagonist/Antidepressant Pharmaceutical Preparations” (priority 2011, published 2012).
# Like-named read-outs stand apart in the source and are kept apart here.
# Assays:
# [1] = human subjects, cited from earlier work
# mice [2] = assay: conditioned place preference assay (CPP); assay type: in vivo
# Procedure: The conditioned place preference assay (CPP) is one test commonly used to show the ability of an antagonist to block rewarding effects in mice. Referring now to FIGS. 1a-b, according to the CPP test mice are placed in an apparatus with two chambers that differ in both visual and tactile cues. Over the course of a one-week training period, a rewarding drug (e.g.—cocaine) is administered once daily exclusively in one chamber so as to allow animals to associate the cues of that chamber with the drug. Sterile water is administered once daily while the animals occupy the opposite chamber to control for non-drug effects. At the conclusion of the training period, animals are allowed free access to both chambers and the time spent in each chamber is measured electronically. It is well known that addictive substances increase the amount of time animals spend in the drug-paired chamber, in the absence of any intervention.
# Moreover, additional testing was performed to control for effects of MI-4 on general behavioral activity, an essential consideration when interpreting results from locomotor-based behavioral paradigms such as the CPP test.
# mice [3] = assay: locomotor activity (Opto-Varimax 4 Activity Analyzer); assay type: in vivo
# Procedure: Referring now to FIGS. 2a-d, locomotor activity was assessed in a non-invasive manner using a Opto-Varimax 4 Activity Analyzer (Columbus Instruments, Columbus, Ohio) that measures animal activity in a cage intersected with photocells projecting infrared beams 2.5 cm apart and 2 cm above the floor. After a brief habituation period, animals were treated with either sterile water as vehicle or MI-4 and activity was measured for 20 min.
# mice [4] = assay: tail suspension test (TST); assay type: in vivo
# Description: Referring now to FIGS. 5a-d, the tail suspension test (TST) and forced swim test (FST) are well-established, prototypical rodent models of learned helplessness. […] These assays are based on the premise that helpless or “depressed” animals struggle less to escape the mild but inescapable stress of being suspended or being immersed in room temperature water. […] In the TST, standard laboratory tape is used to immobilize an animal by its tail to a fixed support approximately 10.5 inches above a surface. The duration of the test is six minutes during which time animal movement is videotaped and later scored for immobility time (in sec) by a blinded observer. Similarly, in the FST animals are immersed in approximately 10 cm of 25° C. water in a 20 cm×13 cm glass cylinder. Animals were tested for 5 min and behavior was videotaped and scored for immobility time (sec) by a blinded observer.
# mice [5] = assay: open field test, time spent in center; assay type: in vivo; conditions: FIG. 3
# Description: Anxiety disorders are often co-morbid with depression and antidepressant drugs are used in the treatment of anxiety. Tests for anxiety in rodents, such as the open field test, make use of the aversion of the animals for exposed locations. Treatment with anxiolytics such as diazepam or fluoxetine increases the amount of time an animal will spend in the center of the open field. We used the Opto-Varimax 4 Activity Analyzer to assess the time animals spent in the center of the open field vs. the periphery after treatment with MI-4. Data were measured as time spent in center (TIC).
# [6] = target: serotonin (5-HT) transporter (Homo sapiens, UniProt P31645); assay: in vitro binding affinity, serotonin transporter; conditions: in vitro studies
# [7] = target: dopamine (DA) transporter (Homo sapiens, UniProt Q01959); assay: in vitro binding affinity, dopamine transporter; conditions: in vitro studies
# [8] = target: noreinephrine (NE) transporter (Homo sapiens, UniProt P23975); assay: in vitro binding affinity, norepinephrine transporter; conditions: in vitro studies
# rodents = conditions: doses less than 100 mg/kg, i.p.; cited from earlier work
# [9] = intravenous administration for up to 72 hours
# Chain of serotonin (5-HT) transporter (P31645 whole entry): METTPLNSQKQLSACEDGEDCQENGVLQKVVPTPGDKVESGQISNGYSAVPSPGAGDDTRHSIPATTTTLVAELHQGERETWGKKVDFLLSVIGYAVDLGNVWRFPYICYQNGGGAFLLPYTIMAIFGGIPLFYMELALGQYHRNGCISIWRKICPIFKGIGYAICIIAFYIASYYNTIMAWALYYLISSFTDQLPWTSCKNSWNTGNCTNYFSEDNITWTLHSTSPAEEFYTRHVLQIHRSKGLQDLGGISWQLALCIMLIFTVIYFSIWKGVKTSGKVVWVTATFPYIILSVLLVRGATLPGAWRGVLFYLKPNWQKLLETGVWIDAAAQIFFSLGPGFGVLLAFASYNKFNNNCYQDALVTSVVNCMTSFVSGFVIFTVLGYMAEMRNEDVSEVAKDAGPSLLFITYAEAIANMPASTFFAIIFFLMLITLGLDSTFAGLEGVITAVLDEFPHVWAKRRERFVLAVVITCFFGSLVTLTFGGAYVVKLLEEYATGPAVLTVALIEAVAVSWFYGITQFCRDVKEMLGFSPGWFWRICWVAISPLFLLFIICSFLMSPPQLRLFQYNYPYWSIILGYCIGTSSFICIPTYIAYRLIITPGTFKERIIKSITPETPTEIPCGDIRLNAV
# Chain of dopamine (DA) transporter (Q01959 whole entry): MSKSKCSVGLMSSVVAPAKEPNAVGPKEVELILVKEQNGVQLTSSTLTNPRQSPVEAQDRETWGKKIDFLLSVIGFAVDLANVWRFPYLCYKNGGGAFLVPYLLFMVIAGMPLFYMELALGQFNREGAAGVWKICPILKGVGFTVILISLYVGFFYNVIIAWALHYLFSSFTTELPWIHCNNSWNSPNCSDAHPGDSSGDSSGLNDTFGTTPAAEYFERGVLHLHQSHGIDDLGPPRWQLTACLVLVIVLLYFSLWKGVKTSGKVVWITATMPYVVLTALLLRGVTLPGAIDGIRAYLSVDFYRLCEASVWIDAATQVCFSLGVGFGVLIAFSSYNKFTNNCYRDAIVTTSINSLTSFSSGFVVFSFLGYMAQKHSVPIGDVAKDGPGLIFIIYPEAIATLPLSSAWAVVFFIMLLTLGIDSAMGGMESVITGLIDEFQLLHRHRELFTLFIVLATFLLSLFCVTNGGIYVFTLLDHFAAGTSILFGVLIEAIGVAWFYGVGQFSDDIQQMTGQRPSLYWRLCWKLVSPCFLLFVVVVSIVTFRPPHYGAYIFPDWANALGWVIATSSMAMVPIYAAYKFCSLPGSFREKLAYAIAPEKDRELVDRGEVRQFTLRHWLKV
# Chain of noreinephrine (NE) transporter (P23975 whole entry): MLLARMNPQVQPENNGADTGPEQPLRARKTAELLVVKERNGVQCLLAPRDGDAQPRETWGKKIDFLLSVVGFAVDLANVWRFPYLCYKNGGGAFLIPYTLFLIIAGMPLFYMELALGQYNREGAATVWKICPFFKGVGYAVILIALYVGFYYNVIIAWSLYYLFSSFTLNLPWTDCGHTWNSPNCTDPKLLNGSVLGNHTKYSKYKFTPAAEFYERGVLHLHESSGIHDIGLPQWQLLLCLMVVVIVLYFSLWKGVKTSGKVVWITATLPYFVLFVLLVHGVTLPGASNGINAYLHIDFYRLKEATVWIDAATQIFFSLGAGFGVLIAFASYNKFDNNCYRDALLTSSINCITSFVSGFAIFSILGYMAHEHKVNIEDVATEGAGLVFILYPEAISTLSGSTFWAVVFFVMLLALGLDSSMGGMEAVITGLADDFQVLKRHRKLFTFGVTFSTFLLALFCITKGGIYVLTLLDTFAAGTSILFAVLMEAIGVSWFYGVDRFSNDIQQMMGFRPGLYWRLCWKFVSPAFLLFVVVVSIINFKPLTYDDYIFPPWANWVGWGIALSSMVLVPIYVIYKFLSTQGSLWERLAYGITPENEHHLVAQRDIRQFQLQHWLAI
structure (smiles),measurement,setting,value
C[C@@H]([C@@H](O)c1ccc(O)cc1)N1CCC(O)(c2ccccc2)CC1 [traxoprodil],oral bioavailability,[1]; extensive metabolizers (EM),23-62%
same,adverse effects,[1]; [9],no observable adverse effects
same,sustained levels in the cerebral spinal fluid,[1]; [9],> 200 ng/mL
same,sustained levels in the plasma,[1]; [9],> 200 ng/mL
same,oral bioavailability,[1]; poor metabolizers (PM),approx. 80%
"C[C@@H](CN1CCC(Cc2ccccc2)CC1)[C@@H](O)c1ccc(O)cc1 (relative stereo) [MI-4, ([R-(R*,S*)]-α-(4-Hydroxyphenyl)-β-methyl-4-(phenylmethyl)-1-piperidinepropanol]",effect of cocaine on time in drug-paired chamber when co-administered,"mice [2]; MI-4 10/mg/kg i.p. co-administered with cocaine 10 mg/kg i.p., FIG. 1b",reduced by half
same,rewarding effects when administered alone (time spent in the MI-4-paired chamber),"mice [2]; administered alone at the same dose (10/mg/kg, i.p.)",did not exhibit rewarding effects
same,distance traveled,"mice [3]; MI-4 vs sterile water vehicle, 20 min, FIG. 2a",only minor effects
same,ambulatory time,"mice [3]; MI-4 vs sterile water vehicle, 20 min, FIG. 2b",only minor effects
same,stereotopy time (grooming behavior),"mice [3]; MI-4 vs sterile water vehicle, 20 min, FIG. 2c",did not significantly alter
same,resting time,"mice [3]; MI-4 vs sterile water vehicle, 20 min, FIG. 2d",only minor effects
same,immobility time in the TST,"mice [4]; six minute test, FIG. 5a, comparable in effect to fluovoxamine and desipramine",dose-dependent reduction in immobility time
same,time in center in the open field,mice [5]; 10 mg/kg,decreased time in center
same,time spent in center (TIC) in the open field,mice [5],did not significantly increase
same,binding affinity for the serotonin (5-HT) transporter,[6],physiologically-relevant binding affinity
same,binding affinity for the dopamine (DA) transporter,[7],physiologically-relevant binding affinity
same,binding affinity for the noreinephrine (NE) transporter,[8],physiologically-relevant binding affinity
same,adverse effects (tolerability),rodents,no observable adverse effects
"Oc1ccc(C2=CCN(C[C@H](O)COCc3ccccc3Cl)CC2)cc1 [MI-17, reference compound]",distance traveled,"mice [3]; beginning at 3 mg/kg but mostly at 10 mg/kg, FIG. 4a",dramatically decreased
same,resting time,"mice [3]; beginning at 3 mg/kg but mostly at 10 mg/kg, FIG. 4b",dramatically increasing
same,stereotopy time,"mice [3]; beginning at 3 mg/kg but mostly at 10 mg/kg, FIG. 4c",dramatically decreased
same,ambulatory time,"mice [3]; beginning at 3 mg/kg but mostly at 10 mg/kg, FIG. 4d",dramatically decreased
same,immobility times in the TST,"mice [4]; 2% DMSO vehicle, FIG. 5c",dose-dependently increased
same,immobility times in the TST,"mice [4]; 55% DMSO vehicle in the oxalate form, FIG. 5d",dose-dependently increased
